Experimental data from US6911470B1, “Polyoxometalate compounds as antiviral agents” (priority 1988, dated 2005).

How the values were obtained:
Friend, Spleen (EY-10) = experiment: UV/XC assay for murine retroviruses in SC-1 cells; type: cell-based, murine retrovirus; settings: Table 2; read-out: EC-50 Friend, Spleen (EY-10)
Procedure: UV/XC Assay for Murine Retroviruses Cells. Mouse embryo fibroblasts (SC-1) and XC cells were obtained from the American Type Culture Collection, Rockville, Md. The XC cell line was derived from a transplantable tumor induced in newborn White-Weston rats by the intramuscular injection of the Prague strain of Rous sarcoma virus. […] The cells were maintained in Eagle's minimum essential medium with Hanks balanced salt solution, supplemented with penicillin (100 U/ml), streptomycin (100 μg/ml), sodium bicarbonate (24 mM), Hepes (25 mM), and either 2 (maintenance) or 10 (growth) percent inactivated newborn or fetal calf serum.
Virus quantitation by UV-XC assay. The XC test (Rowe et al, Virology 42, 1136-1139, 1970) is a plaque-type of assay which tests for the presence and titer of B- and N-tropic murine leukemia viruses. Because these viruses produce no overt signs of infection of SC-1 mouse cells, it is necessary to overlay the virus producing culture with an indicator cell line, XC. The number of syncytia that are produced is a direct measure of the virus titer in FFU.
Six-well plates were seeded with 1×10^5 SC-1 mouse cells on the first day. On the following day the medium was removed and the inoculum (0.2 ml) was added in medium containing polybrene (4 μg/ml). For determining the antiviral activity of the compounds in culture, the virus dilution selected produced in untreated cultures about 80 foci per well. After 1 hour, the virus was removed and various concentrations of the drug were added. The plates were replenished with medium on the third and fifth days. The medium was removed on the eighth day and the cells exposed to UV irradiation (60 erg/mm^2 per sec) for 30 seconds. Medium containing 10^6 XC cells was then added to each plate. On the eleventh day, the plates were fixed with 10% buffered Formalin and stained with crystal violet. Comparison of the number of foci to those found in virus-infected cells receiving no drug allowed determination of whether a drug at a particular concentration was effective. Control cells without virus but receiving the drug provided an estimate of the drug's toxic effects as quantitated by using trypan blue staining.

human PBM cells = experiment: Cytotoxicity assay on uninfected PHA stimulated human PBMC (trypan blue); type: cell-based; settings: Table 2; >100 μM = Nontoxic; read-out: IC50 Toxicity PBM Cells
Procedure: Cells. […] PBS), and pelleted at 300×g for 10 minutes. […] Cytotoxicity assay. The drugs were evaluated for their potential toxic effects on uninfected PHA stimulated human PBMC. Flasks were seeded so that the final cell concentration was 2×10^5 cells/ml. The cells were cultured with and without drug for 6 days, at which time aliquots were counted for cell viability, as assessed by the trypan blue dye-exclusion method using a hemacytometer. The median inhibitory concentration (IC50) was calculated using the median effect method (Chou et al, Elsevier-Biosoft, Elsevier Science Publishers, Cambridge, U.K., 1985; Chou et al, Adv. Enz. Regul. 22, 27-55, 1984). Median-effect method. Dose-effect relationships were analyzed by the median-effect equation (Chou et al, Adv. Enz. Regul. 22, 27-55, 1984). The slope (m) and median effective and inhibitory concentration (EC50 and IC50) values were obtained by using a computer program developed by Chou and Chou (Chou et al, Elsevier-Biosoft, Elsevier Science Publishers, Cambridge, U.K., 1985).

HSV-1 = experiment: Plaque reduction assay for herpes simplex viruses in Vero cells; type: cell-based, herpes simplex virus type 1; settings: Table 2; read-out: EC-50 HSV-1
Procedure: (§1) Cell culture assays for heroes simplex viruses. Mycoplasma-free Vero cells, obtained from Flow Laboratory (McLean, Va.), were used for the plaque assays. The methodologies for the plaque reduction and cytotoxicity assays have been previously described (Schinazi et al, Antimicrob. Agents Chemother. 22, 499-507, 1982). Median-effect method. Dose-effect relationships were analyzed by the median-effect equation (Chou et al, Adv. Enz. Regul. 22, 27-55, 1984). The slope (m) and median effective and inhibitory concentration (EC50 and IC50) values were obtained by using a computer program developed by Chou and Chou (Chou et al, Elsevier-Biosoft, Elsevier Science Publishers, Cambridge, U.K., 1985).

HSV-2 = experiment: as above; type: cell-based, herpes simplex virus type 2; settings: Table 2; read-out: EC-50 HSV-2
Procedure: as §1

[1] = molecular target: T1, HIV-1 reverse transcriptase (Human immunodeficiency virus type 1 group M subtype B, UniProt P04585); experiment: Evaluation of compounds on purified retroviral RT (cell-free, virion-derived); type: biochemical; settings: Table 2; read-out: EC-50 Cell-Free RT (virion-derived)
T1 construct: HIV-1 RT was isolated from detergent disrupted virions; made in house; host or cells: virions pelleted from culture fluid of HIV-1-infected PHA-stimulated human PBMC; DEAE-cellulose and phosphocellulose chromatography
Procedure: Evaluation of compounds on purified retroviral RT. HIV-1 RT was isolated from detergent disrupted virions obtained from the cell-free supernatant of infected PHA-stimulated PBMC. The enzyme was purified by passing the extract through ion-exchange chromatography columns, as described previously (Eriksson et al, Antimicrob. Agents Chemother. 31, 600-604, 1977. Briefly, 750 ml of culture fluid harvested from HIV-1-infected PBMC were ultracentrifuged to pellet the virus. The pellet was dissolved in buffer A [50 mM Tris-HCl, pH 7.9/0.25% Nonidet P-40/5 mM dithiothreitol/20% (vol/vol) glycerol] containing 1 mM EDTA, and freeze-thawed four times. After clarification by centrifugation, the enzyme was partially purified from the supernatant by passing the extract through a DEAE-cellulose column (Whatman DE-52; 2.6×15 cm) previously equilibrated with buffer B (50 mM Tris-Cl, pH 7.9, 50 mM KCl, 1 mM EDTA, 1 mM dithiothreitol, 20% glycerol). Elution was performed using a linear gradient 50-500 mM KCl in buffer B. Fractions containing enzyme activity were dialyzed against buffer B and were further purified on a phosphocellulose column (Whatman P-11) using a linear KCl (50-500 mM) gradient in buffer B. The peak fractions were pooled and dialyzed against buffer B. The enzyme was characterized as HIV-1 reverse transcriptase based on its cation, salt, pH, and template requirements according to previous descriptions (Eriksson et al, Antimicrob. Agents Chemother. 31, 600-604, 1977). The standard reaction mixture was used to evaluate the inhibitory effect of the drugs, as previously described (Eriksson et al, Antimicrob. Agents Chemother. 31, 600-604, 1977). Briefly, the reaction mixtures (final volume 100 μl) contained 100 mM Tris-HCl, pH 8.0, 50 mM KCl, 2 mM MgCl2, 5 mM DTT, 400 ug/ml bovine serum albumin, 3 μg/ml (rA)·(dT)12-18 and 1 μM of [^3H]TTP (specific activity 82.3 Ci/mmol). The reactions were started by the addition of 10 μl of partially purified RT, incubated at 37° C. for 60 min., and processed as previously described (Eriksson et al, Antimicrob. Agents Chemother. 31, 600-604, 1977).
Median-effect method. Dose-effect relationships were analyzed by the median-effect equation (Chou et al, Adv. Enz. Regul. 22, 27-55, 1984). The slope (m) and median effective and inhibitory concentration (EC50 and IC50) values were obtained by using a computer program developed by Chou and Chou (Chou et al, Elsevier-Biosoft, Elsevier Science Publishers, Cambridge, U.K., 1985).

Vero cells = experiment: Cytotoxicity assay in Vero cells; type: cell-based; settings: Table 2; >100 μM = Nontoxic; read-out: IC50 Toxicity Vero Cells
Text: Cell culture assays for heroes simplex viruses. Mycoplasma-free Vero cells, obtained from Flow Laboratory (McLean, Va.), were used for the plaque assays. The methodologies for the plaque reduction and cytotoxicity assays have been previously described (Schinazi et al, Antimicrob. Agents Chemother. 22, 499-507, 1982).

[2] = Comparison of toxicity of polyoxometalate compounds in mice (mortality, haematology); type: in vivo; design: MCV (mean corpuscular volume): unit not given here; settings: BID × 6, 60 mkd i.p.
Text: Comparison of Toxicity of Polyoxometalate Compounds Mice.
In vivo antiviral experiments. […] Treatment was continued daily for 6 or 10 days.

[3] = tested on: human granulocyte-macrophage precursor cells; type: cell-based
Text: Preparation of Cells. Human bone marrow cells were collected by aspiration from the posterior iliac crest of normal healthy volunteers, treated with heparin and the mononuclear population separated by Ficoll-Hypaque gradient centrifugation. Cells were washed twice in Hanks balanced salt solution, counted with a hemacytometer and their viability was >98% as assessed by trypan blue exclusion.
Assay of Colony-Forming Unit Granulocyte-Macrophage (CFU-GM) for Drug Cytotoxicity. The culture assay for CFU-GM was performed using a bilayer soft-agar method as recently described (Sommadossi et al, Antimicrob. Agents Chemother. 31, 452-454, 1987). McCoy 5A nutrient medium supplemented with 15% dialyzed fetal bovine serum (heat inactivated at 56° C. for 30 min.) (Gibco Laboratories, Grand Island, N.Y.) was used in all experiments. This medium was completely lacking in thymidine and uridine. Cells were cloned in 0.3% agar in the presence of increasing concentrations of the modulating compound or in medium alone (control). After 14 days of incubation at 37° C. in a humidified atmosphere of 5% CO2 in air, colonies (≧50 cells) were counted using an inverted microscope.
The toxicities of a variety of polyoxometalates with respect to human bone marrow cells (human granulocyte-macrophage precursor cells) were assessed.

| Substance | EC50 (Friend, Spleen (EY-10)) | IC50 (human PBM cells) | EC50 (HSV-1) | EC50 (HSV-2) | EC50 [1] | IC50 (Vero cells) | Hct (hematocrit) ([2]; bled on day 17) | Hgb (hemaglobin) ([2]; bled on day 17) | MCH ([2]; bled on day 17) | MCHC (mean corpuscular hemoglobin concentration) ([2]; bled on day 17) | MCV (mean corpuscular volume) ([2]; bled on day 17) | PLT (platelates) (×1000) ([2]; bled on day 17) | RBC (×1000000) ([2]; bled on day 17) | RDW (width of red cells) ([2]; bled on day 17) | WBC (×1000) ([2]; bled on day 17) | Mortality ([2]; dead/total) | toxicity to human bone marrow cells (order of toxicity, FIG. 6) [3] |
| --- | --- | --- | --- | --- | --- | --- | --- | --- | --- | --- | --- | --- | --- | --- | --- | --- | --- |
| (LysH^+)q(H^+)5-qST, where q=1-5 [(LYSH^+)nH^+(4−n)ST] | 0.95 µM | 2450 µM | 0.32 µM | < 1 µM | 20.5 µM | > 100 µM | – | – | – | – | – | – | – | – | – | – | – |
| (NH4)4[SiW12O40] [NH4ST] | – | – | – | – | – | – | 17.47 ± 7.08% | 6.42 ± 2.39 g/dL | 17.6 ± 4.64 pg | 37.92 ± 9.82 g/dL | 43.38 ± 0.51 | 246.46 ×1000 | 3.76 ± 1.57 ×1000000 | 36.76 ± 2.63% | 7.18 ± 3.9 ×1000 | 0/5 | NH4BT (least toxic)<BT and NH4ST<AZT and ST |
